Data published in US12668845B2, “Methods for predicting drug responsiveness in cancer patients” (Allarity Therapeutics Europe ApS, priority 2018, dated 2026).

Columns and labels:
Assay in all cases: Growth inhibition of cell lines treated with 2X-121
Type in all cases: cell-based
HEC-251 = details: cell line HEC-251, origin Endometrial; read-out: Measured growth inhibition IC50
MCF-7 = details: Homo sapiens, MCF7; cell line MCF-7, origin Breast; read-out: Measured growth inhibition IC50
MV-4-11 = details: Homo sapiens, MV4-11; cell line MV-4-11, origin AML; read-out: Measured growth inhibition IC50
HCC1143 = details: Homo sapiens; cell line HCC1143, origin Breast; read-out: Measured growth inhibition IC50
IM-9 = details: Homo sapiens; cell line IM-9, origin B lymphoblast; read-out: Measured growth inhibition IC50
BT-20 = details: Homo sapiens; cell line BT-20, origin Breast; read-out: Measured growth inhibition IC50
T47D = details: Homo sapiens; cell line T47D, origin Breast; read-out: Measured growth inhibition IC50
SNG-M = details: cell line SNG-M, origin Endometrial; read-out: Measured growth inhibition IC50
HCC70 = details: Homo sapiens; cell line HCC70, origin Breast; read-out: Measured growth inhibition IC50
NCI-H1694 = details: Homo sapiens; cell line NCI-H1694, origin SCLC; read-out: Measured growth inhibition IC50
M14 = details: Homo sapiens; cell line M14, origin Melanoma; read-out: Measured growth inhibition IC50
Toledo = details: Homo sapiens; cell line Toledo, origin DLBCL (GC); read-out: Measured growth inhibition IC50
NCI-H146 = details: Homo sapiens; cell line NCI-H146, origin SCLC; read-out: Measured growth inhibition IC50
HEC-6 = details: cell line HEC-6, origin Endometrial; read-out: Measured growth inhibition IC50
MDA-MB-157 = details: Homo sapiens; cell line MDA-MB-157, origin Breast; read-out: Measured growth inhibition IC50
HEC-265 = details: cell line HEC-265, origin Endometrial; read-out: Measured growth inhibition IC50
HT = details: Homo sapiens; cell line HT, origin DLBCL (GC); read-out: Measured growth inhibition IC50
Method: (§1) The NCI60 panel of cell lines can be used to determine sensitivity to 2X-121, but it is also possible to use other cell line panels.
(§2) Baseline DNA chip measurements of 61 of the cancer cell lines in Table 1 (excluding M14 HEC-1 ECC-1 SNG-II HEC-88nu SR IM-9 Namalwa MC/CAR U266 JVM-13 NCEB-1 ARH-77) were performed using Affymetrix HG-U133Plus2 arrays and logit normalized. For each array, the logit transformation was performed followed by a Z-transformation to mean zero and SD 1, and correlated to growth inhibition (−log(GI50)). The expression level of each of the genes of Tables 2 and 3 in each cell line was correlated to the growth of those cell lines (log(GI50)) in the presence of 2X-121. The Pearson correlation coefficient was then determined to identify genes positively and negatively correlated to sensitivity to 2X-121. Tables 2 and 3 show the top positively correlated genes (the biomarkers of sensitivity) and negatively correlated genes (the biomarkers of resistance). In particular, genes with a Pearson correlation greater than 0.25 or below −0.25 can be classified as biomarkers of sensitivity or resistance, respectively.

JVM-2 = details: Homo sapiens; cell line JVM-2, origin MCL; read-out: Measured growth inhibition IC50
Method: as §1, §2

HT-1080 = details: Homo sapiens; cell line HT-1080, origin Fibrosarcoma; read-out: Measured growth inhibition IC50
Method: as §1, §2

C3A = details: Homo sapiens; cell line C3A, origin HCC; read-out: Measured growth inhibition IC50
Method: as §1, §2

NCI-H446 = details: Homo sapiens; cell line NCI-H446, origin SCLC; read-out: Measured growth inhibition IC50
Method: as §1, §2

K562 = details: Homo sapiens; cell line K562, origin Erythroleukemia from CML Pt; read-out: Measured growth inhibition IC50
NCEB-1 = details: NCEB1; cell line NCEB-1, origin MCL; read-out: Measured growth inhibition IC50
THP-1 = details: Homo sapiens; cell line THP-1, origin AML; read-out: Measured growth inhibition IC50
SR = details: Homo sapiens; cell line SR, origin B cell lymphoma; read-out: Measured growth inhibition IC50
AN3 CA = details: Homo sapiens; cell line AN3 CA, origin Endometrial; read-out: Measured growth inhibition IC50
JVM-13 = details: JVM13; cell line JVM-13, origin MCL; read-out: Measured growth inhibition IC50
HEC-59 = details: cell line HEC-59, origin Endometrial; read-out: Measured growth inhibition IC50

O=c1[nH]nc2c3c(cccc13)N=C(CN1Cc3ccccc3C1)N2 [2X-121, 8-(isoindolin-2-ylmethyl)-2,9-dihydro-3H-pyridazino[3,4,5-de]quinazolin-3-one]
IC50 (HEC-251): 1260 nM
IC50 (MCF-7): 1900 nM
IC50 (MV-4-11): 950 nM
IC50 (HCC1143): 3.7 µM
IC50 (IM-9): 2100 nM
IC50 (BT-20): 7.9 µM
IC50 (T47D): 7.8 µM
IC50 (SNG-M): 1360 nM
IC50 (HCC70): 9.3 µM
IC50 (NCI-H1694): 2470 nM
IC50 (M14): 6.7 µM
IC50 (Toledo): 1600 nM
IC50 (NCI-H146): 930 nM
IC50 (HEC-6): 1880 nM
IC50 (MDA-MB-157): 6.8 µM
IC50 (HEC-265): 2400 nM
IC50 (HT): 660 nM
IC50 (JVM-2): 14 µM
IC50 (HT-1080): 830 nM
IC50 (C3A): 2540 nM
IC50 (NCI-H446): 610 nM
IC50 (K562): 4.3 µM
IC50 (NCEB-1): 5.3 µM
IC50 (THP-1): 5.4 µM
IC50 (SR): 260 nM
IC50 (AN3 CA): 1490 nM
IC50 (JVM-13): 7.3 µM
IC50 (HEC-59): 2440 nM
